Experimental findings from PMC8308777, “Small Molecule–Peptide Conjugates as Dimerization Inhibitors of Leishmania infantum Trypanothione Disulfide Reductase” (Pharmaceuticals, 2021) are described below.

Structures are written as SMILES. Where two headings read alike, the source gives them in different places.

The target in assay [1] is T1, Leishmania infantum trypanothione disulfide reductase (LiTryR) (Leishmania infantum, UniProt A4HSF7).
T1 construct: HIS; made in house; host or cells: E. coli BL21 (DE3) Rossetta 2
T1 sequence (A4HSF7 entry or part of it): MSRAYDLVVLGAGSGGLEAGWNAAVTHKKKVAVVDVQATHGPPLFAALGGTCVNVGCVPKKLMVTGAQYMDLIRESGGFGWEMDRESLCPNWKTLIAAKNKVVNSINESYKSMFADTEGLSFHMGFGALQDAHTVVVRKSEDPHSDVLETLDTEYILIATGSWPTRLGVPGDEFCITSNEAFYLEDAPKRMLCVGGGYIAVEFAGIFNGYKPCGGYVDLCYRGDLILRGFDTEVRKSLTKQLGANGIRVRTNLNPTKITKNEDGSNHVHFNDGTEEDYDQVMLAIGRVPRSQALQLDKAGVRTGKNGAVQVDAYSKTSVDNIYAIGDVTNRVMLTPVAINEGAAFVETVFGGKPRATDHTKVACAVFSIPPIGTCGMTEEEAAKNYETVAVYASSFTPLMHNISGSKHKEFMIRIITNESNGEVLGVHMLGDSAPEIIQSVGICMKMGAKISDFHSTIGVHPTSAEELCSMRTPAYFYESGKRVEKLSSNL
The experiment in a line: LiTryR oxidoreductase activity assay (DTNB-coupled). The assay is classed as biochemical. Particulars: no preincubation; for IC50: modified DTNB-coupled assay, 26 °C, HEPES pH 7.5, HIS-LiTryR 7 nM, TS2 1 μM, NADPH 150 μM, inhibitor 0.1-25 μM, IC50 ± SE, three independent experiments in triplicate, read-out: IC50act, LiTryR oxidoreductase activity. Here is the method:
LiTryR oxidoreductase activity was assessed spectrophotometrically using a modified version of the DTNB-coupled assay, described by Hamilton et al.. Briefly, reactions were performed at 26 °C in 250 μL of HEPES buffer (pH 7.5, 40 mM) containing EDTA (1 mM), NADP^+ (30 μM), DTNB (25 μM), TS2 (1 μM), NADPH (150 μM), glycerol (0.02%), DMSO (1.75%), and recombinant HIS-LiTryR (7 nM). […] Reactions were started by addition of a mixture (50 μL/well) of the substrates (NADPH and TS2).
LiTryR oxidoreductase activity was monitored at 26 °C by an increase in absorbance at 412 nm in an EnSpire Multimode Plate Reader (PerkinElmer, Waltham, MA, USA). In this DTNB-coupled assay, one molecule of T(SH)2 reduces one molecule of DTNB, producing two TNB molecules. The TNB concentration was obtained by multiplying the absorbance values by 100 (50 μM TNB generates 0.5 arbitrary units of absorbance at 412 nm).
For IC50 determinations, the initial velocities were calculated from the slope of the initial linear part of the reaction curves. The initial velocities of the reaction progress curves in the presence of inhibitor (concentrations ranging from 0.1 to 25 μM) were normalized as a percentage with respect to the initial velocity in the presence of the inhibitor vehicle (DMSO). IC50 values were obtained by fitting these percentages to a nonlinear regression model with GraFit 6 software (Erithacus, Horley, Surrey, U.K.). All the assays were performed in triplicate.

Assay [2] addresses T2, HIS-FLAG-tagged LiTryR dimer (Leishmania infantum, UniProt A4HSF7).
T2 construct: made in house; host or cells: E. coli BL21 (DE3) Rossetta 2
Put plainly: LiTryR dimer quantitation assay (ELISA). The assay is classed as biochemical. As to conditions: 16 h at 37 °C; for IC50: HIS-FLAG-LiTryR 400 nM, Tris pH 8.0, 300 mM NaCl, compounds 25 to 3.1 μM, IC50 ± SE, three independent experiments in triplicate, read-out: IC50dim, LiTryR dimer quantitation. Here is the method:
The relative amount of the LiTryR dimeric form in the presence of the SMPCs was assessed using an enzyme-linked immunosorbent assay (ELISA), developed in our laboratory. Briefly, HIS-FLAG-tagged LiTryR (400 nM) was incubated in dimerization buffer (1 mL of 50 mM Tris pH 8.0 and 300 mM NaCl) for 16 h at 37 °C with vigorous shaking and in a humid atmosphere in the presence of the different compounds ranging from 25 to 3.1 μM. Following a 15 min centrifugation at 18,000× g and room temperature, the supernatants were added to the α-FLAG-coated plates (200 μL/well) and incubated for 30 min at 37 °C with vigorous shaking in a humid atmosphere. The plates were washed five times with TTBS buffer (2 mM Tris pH 7.6, 138 mM NaCl, and 0.1% Tween-20) and incubated with diluted monoclonal α-HIS horseradish peroxidase (HRP)-conjugated antibody (200 μL/well, 1:50,000, Abcam, Cambridge, UK) in fatty acid- and essentially globulin-free bovine serum albumin (5%) prepared in TTBS buffer for 1 h at room temperature. The plates were washed again five times and the o-phenylenediamine dihydrochloride substrate, prepared according to the manufacturer’s instructions, was added (100 μL/well). The enzymatic reactions were stopped after 5 min by addition of […] (100 μL/well) and the absorbances were measured at 490 nm in an EnSpire Multimode Plate Reader (PerkinElmer, Waltham, MA, USA).
For IC50 determinations, the absorbance values in the presence of different concentrations of inhibitor were normalized as a percentage with respect to the absorbance value in the presence of DMSO. The IC50 values were obtained by fitting these percentages to a nonlinear regression model with GraFit 6 software (Erithacus, Horley, Surrey, U.K.). The assays were carried out in triplicate and repeated three times.
(In general: In an ELISA, binding on a coated surface is turned into a signal by an enzyme label.)

T2 sequence (A4HSF7 entry or part of it): as above

In the case of `CC[C@H](C)[C@H](NC(=O)CNC(=O)[C@@H](NC(=O)[C@H](CO)NC(=O)[C@H](CCC(N)=O)NC(=O)[C@@H](NC(=O)[C@@H](NC(=O)[C@H](CCCCN)NC(=O)[C@@H]1CCCN1C(C)=O)[C@@H](C)CC)[C@@H](C)CC)C(C)C)C(N)=O` [TRL38, Ac-PKIIQSVGI-NH2, reference compound], the “LiTryR oxidoreductase activity at 25 μM (%)” value in assay [1] (at 25 μM, reliable IC50 could not be determined) was 65.1%. Moreover, in assay [1], the IC50 is more than 25 µM. In assay [2], the IC50 is more than 25 µM and the “LiTryR dimer at 25 μM (%)” value is listed as 61.4%.

Turning to `CC[C@H](C)[C@H](NC(=O)CNC(=O)[C@@H](NC(=O)[C@H](CO)NC(=O)[C@H](CCC(N)=O)NC(=O)[C@@H](NC(=O)[C@@H](NC(=O)[C@H](CCCCN)NC(=O)[C@@H]1CCCN1C(=O)COCCOCCN(Cc1ccccc1)Cc1ccccc1)[C@@H](C)CC)[C@@H](C)CC)C(C)C)C(N)=O` [compound 8, (Ph-CH2)2N-(CH2)2-O-(CH2)2-O-CH2-CO-NH-PKIIQSVGI-NH2], the values for the IC50 in assay [1] (SEM) and in assay [2] (SEM) were 9.8 ± 2.3 µM and 7.1 ± 0.5 µM, respectively.

Turning to `CC[C@H](C)[C@H](NC(=O)CNC(=O)[C@@H](NC(=O)[C@H](CO)NC(=O)[C@H](CCC(N)=O)NC(=O)[C@@H](NC(=O)[C@@H](NC(=O)[C@H](CCCCN)NC(=O)[C@@H]1CCCN1C(=O)COCCOCCNC(=O)CN1C(=O)c2cccc3cccc1c23)[C@@H](C)CC)[C@@H](C)CC)C(C)C)C(N)=O` [1d], the IC50 in assay [1] (SEM) was found to be 6.7 ± 0.4 µM; in assay [2] (SEM), 7.8 ± 0.1 µM.

In the case of `CC[C@H](C)[C@H](NC(=O)CNC(=O)[C@@H](NC(=O)[C@H](CO)NC(=O)[C@H](CCC(N)=O)NC(=O)[C@@H](NC(=O)[C@@H](NC(=O)[C@H](CCCCN)NC(=O)[C@@H]1CCCN1C(=O)COCCNC(=O)CN1C(=O)c2cccc3cccc1c23)[C@@H](C)CC)[C@@H](C)CC)C(C)C)C(N)=O` [2d], the IC50 in assay [1] (SEM) is 6.9 ± 1.9 µM; in assay [2] (SEM), 7.1 ± 0.1 µM.

Take `CC[C@H](C)[C@H](NC(=O)CNC(=O)[C@@H](NC(=O)[C@H](CO)NC(=O)[C@H](CCC(N)=O)NC(=O)[C@@H](NC(=O)[C@@H](NC(=O)[C@H](CCCCN)NC(=O)[C@@H]1CCCN1C(=O)CCNC(=O)Cc1ccccc1)[C@@H](C)CC)[C@@H](C)CC)C(C)C)C(N)=O` [3a, Ph-CH2-CO-NH-(CH2)2-CO-NH-PKIIQSVGI-NH2]: the IC50 came out at 20.6 ± 1.6 µM in assay [1] (SEM) and 12.7 ± 1.1 µM in assay [2] (SEM).

`CC[C@H](C)[C@H](NC(=O)CNC(=O)[C@@H](NC(=O)[C@H](CO)NC(=O)[C@H](CCC(N)=O)NC(=O)[C@@H](NC(=O)[C@@H](NC(=O)[C@H](CCCCN)NC(=O)[C@@H]1CCCN1C(=O)COCCOCCNC(=O)Cc1ccc2ccccc2c1)[C@@H](C)CC)[C@@H](C)CC)C(C)C)C(N)=O` [1b, Naphthyl-CH2-CO-NH-(CH2)2-O-(CH2)2-O-CH2-CO-NH-PKIIQSVGI-NH2]: the IC50 is 18.2 ± 1 µM in assay [1] (SEM) and 8.7 ± 0.5 µM in assay [2] (SEM).

For `CC[C@H](C)[C@H](NC(=O)CNC(=O)[C@@H](NC(=O)[C@H](CO)NC(=O)[C@H](CCC(N)=O)NC(=O)[C@@H](NC(=O)[C@@H](NC(=O)[C@H](CCCCN)NC(=O)[C@@H]1CCCN1C(=O)COCCOCC[N+](C)(C)Cc1ccccc1)[C@@H](C)CC)[C@@H](C)CC)C(C)C)C(N)=O` [compound 9, (Ph-CH2)(Me)2N^+-(CH2)2-O-(CH2)2-O-CH2-CO-NH-PKIIQSVGI-NH2 I^−], the IC50 in assay [1] (SEM) came out at 18.3 ± 2.6 µM. Further, in assay [2], the IC50 was more than 25 µM and the “LiTryR dimer at 25 μM (%)” value turned out to be 53.3%.

In the case of `CC[C@H](C)[C@H](NC(=O)CNC(=O)[C@@H](NC(=O)[C@H](CO)NC(=O)[C@H](CCC(N)=O)NC(=O)[C@@H](NC(=O)[C@@H](NC(=O)[C@H](CCCCN)NC(=O)[C@@H]1CCCN1C(=O)COCCOCCNC(=O)Cc1ccccc1)[C@@H](C)CC)[C@@H](C)CC)C(C)C)C(N)=O` [1a, Ph-CH2-CO-NH-(CH2)2-O-(CH2)2-O-CH2-CO-NH-PKIIQSVGI-NH2], the IC50 was 22 ± 0.7 µM in assay [1] (SEM) and 9.4 ± 0.1 µM in assay [2] (SEM).

On to `CC[C@H](C)[C@H](NC(=O)CNC(=O)[C@@H](NC(=O)[C@H](CO)NC(=O)[C@H](CCC(N)=O)NC(=O)[C@@H](NC(=O)[C@@H](NC(=O)[C@H](CCCCN)NC(=O)[C@@H]1CCCN1C(=O)COCCOCC[N+](C)(Cc1ccccc1)Cc1ccccc1)[C@@H](C)CC)[C@@H](C)CC)C(C)C)C(N)=O` [compound 10, (Ph-CH2)2(Me)N^+-(CH2)2-O-(CH2)2-O-CH2-CO-NH-PKIIQSVGI-NH2 I^−], for which the values for the IC50 in assay [1] (SEM) and in assay [2] (SEM) were 9.2 ± 1.1 µM and 21.2 ± 3.5 µM, respectively.

Turning to `CC[C@H](C)[C@H](NC(=O)CNC(=O)[C@@H](NC(=O)[C@H](CO)NC(=O)[C@H](CCC(N)=O)NC(=O)[C@@H](NC(=O)[C@@H](NC(=O)[C@H](CCCCN)NC(=O)[C@@H]1CCCN1C(=O)COCCOCCNC(=O)Cc1ccc(-c2ccccc2)cc1)[C@@H](C)CC)[C@@H](C)CC)C(C)C)C(N)=O` [1c, Biphenyl-CH2-CO-NH-(CH2)2-O-(CH2)2-O-CH2-CO-NH-PKIIQSVGI-NH2], the figures for the IC50 in assay [1] (SEM) and in assay [2] (SEM) were 16.6 ± 3.8 µM and 22.9 ± 1.4 µM, respectively.

On to `CC[C@H](C)[C@H](NC(=O)CNC(=O)[C@@H](NC(=O)[C@H](CO)NC(=O)[C@H](CCC(N)=O)NC(=O)[C@@H](NC(=O)[C@@H](NC(=O)[C@H](CCCCN)NC(=O)[C@@H]1CCCN1C(=O)CN1C(=O)c2cccc3cccc1c23)[C@@H](C)CC)[C@@H](C)CC)C(C)C)C(N)=O` [4d], for which the figures for the IC50 in assay [1] (SEM) and in assay [2] (SEM) were 8 ± 1.5 µM and 7.1 ± 0.2 µM, respectively.

For `CC[C@H](C)[C@H](NC(=O)CNC(=O)[C@@H](NC(=O)[C@H](CO)NC(=O)[C@H](CCC(N)=O)NC(=O)[C@@H](NC(=O)[C@@H](NC(=O)[C@H](CCCCN)NC(=O)[C@@H]1CCCN1C(=O)COCCNC(=O)Cc1ccccc1)[C@@H](C)CC)[C@@H](C)CC)C(C)C)C(N)=O` [2a, Ph-CH2-CO-NH-(CH2)2-O-CH2-CO-NH-PKIIQSVGI-NH2], the IC50 in assay [1] (SEM) worked out at 22.3 ± 1.5 µM; in assay [2] (SEM), 15 ± 0.6 µM.

Consider `CC[C@H](C)[C@H](NC(=O)CNC(=O)[C@@H](NC(=O)[C@H](CO)NC(=O)[C@H](CCC(N)=O)NC(=O)[C@@H](NC(=O)[C@@H](NC(=O)[C@H](CCCCN)NC(=O)[C@@H]1CCCN1C(=O)COCCOCCNCc1ccccc1)[C@@H](C)CC)[C@@H](C)CC)C(C)C)C(N)=O` [compound 7, Ph-CH2-NH-(CH2)2-O-(CH2)2-O-CH2-CO-NH-PKIIQSVGI-NH2], for which the IC50 came out at 8.3 ± 1.4 µM in assay [1] (SEM) and 12.6 ± 0.6 µM in assay [2] (SEM).

Take `CC[C@H](C)[C@H](NC(=O)CNC(=O)[C@@H](NC(=O)[C@H](CO)NC(=O)[C@H](CCC(N)=O)NC(=O)[C@@H](NC(=O)[C@@H](NC(=O)[C@H](CCCCN)NC(=O)[C@@H]1CCCN1C(=O)Cc1ccccc1)[C@@H](C)CC)[C@@H](C)CC)C(C)C)C(N)=O` [4a, Ph-CH2-CO-NH-PKIIQSVGI-NH2]: the IC50 in assay [1] (SEM) turned out to be 10.3 ± 1.8 µM; in assay [2] (SEM), 11.4 ± 0.1 µM.
